One series concerns healthy male volunteers. The series is described as follows: Alprostadil delivery through micropores on the penis shaft with ultrasonic transducer, clinical responses. The format is in vivo, human. Particulars: both subjects. Here is the method: Alprostadil, or PGE1, is a prostaglandin used therapeutically to treat male erectile dysfunction via it's vasodilator behavior. The standard delivery mode for this drug is a direct injection into the base of the penis or via a suppository inserted into the urethra. A set of experiments were conducted with two healthy male volunteers. […] A concentrated solution of alprostadil was placed in a small reservoir patch placed on the poration site, an ultrasonic transducer was then placed on the top of the reservoir and activated and the subject's erectile and other clinical responses were recorded on video tape. Both subjects developed a significant amount of engorgement of the penis, estimated as achieving 70% of more of a full erection at the dose applied. In addition, a malar flush response to the systemic levels of the drug delivered was observed. […] Both the erectile response and the malar flush provide evidence of the delivery of a clinically active amount of the drug, a well know vasodilator.

For series [1] the following is noted: human.
Series [2] is described as follows: Morphine delivery through porated volar forearm with positive pressure gradient, venous blood morphine. Particulars: solution on porated volar forearm.
Text: A solution of morphine is applied to a porated area on the volar forearm of the human subjects. A positive pressure gradient is used to provide a basal delivery rate of the morphine into the body, as determined by assay of venous blood draws at appropriate time intervals for the presence of morphine. […] Upon demand, an additional pressure bolus is applied to result in a spike in the delivery of the morphine. The additional pressure bolus is achieved in one test by use of ultrasound; or in another experiment by the use of a pressure spike.
The test system of series [3] is volar forearm of a healthy volunteer. Nature of the series: Heparin delivery through micropores, passive or with iontophoresis, with microscopic examination of the site.
Experimental: A heparin solution was applied to skin porated to a depth of approximately 100 μm, allowing either passive diffusion or coupled with iontophoresis (about 1 mA/cm^2) that was applied for a sufficient period of time to transport the heparin through the micropores into the underlying tissues. […] An experiment was conducted wherein a site on the volar forearm of a healthy volunteer was prepared by creating a matrix of 36 micropores within a 1 square cm area. A small reservoir containing a sodium heparin solution and the negative electrode for an iontophoretic system was attached to the site. The positive electrode was attached to the subject's skin some distance away using a hydrogel electrode obtained from Iomed, a commercial supplier of iontophoretic systems. The system was run for ten minutes at 0.2 milliamperes per square cm.
Series [4] relates to healthy non-diabetic subject. The series is described as follows: Insulin delivery through porated skin, finger stick blood glucose. The format is in vivo, human. An excerpt: Insulin, like many compounds normally present in the healthy individual, is a polypeptide which must be maintained in individuals, such as diabetics who need exogenous insulin, at both a basal level and be given in a pulsatile bolus fashion in response to meals and the subject's activity levels. Currently this is achieved via subcutaneous injections of fast acting and slow acting formulations. Because of the molecular weight of insulin, typically ˜6000, it is not able to be delivered at clinically useful levels with traditional transdermal or transmucosal methods. However, by opening the micropores through the barrier layers of the skin or mucosa, a clear path is provided allowing the delivery of the insulin into the viable tissues wherein the interstitial fluid present in these tissues will allow diffusion (including osmotically driven) of the insulin to and into the lymph system and capillary bed, delivering clinically useful amounts. A concentrated insulin solution containing 3500 IU/ml of recombinant human insulin purchased from Boehringer-Mannhein Co., was applied in a reservoir to a porated of the subject's skin on the volar forearm covering 4 square cm. The healthy, person, non-diabetic, subject fasted for 14 hours prior to the start of the experiment. Intravenous and finger stick blood samples were drawn periodically prior to and after the delivery phase began and assayed for glucose, insulin and C-peptide.
The use of liposomes, lipid complexes, microspheres including nanospheres, PEGellated compounds (compounds combined with polyethylene glycol) and other microparticles as part of a drug delivery system is well developed for many different specific applications. In particular, when dealing with a compound which is easily broken down by the endogenous components in the body's tissues such as protease, nuclease, or carbohydrase enzymes in the skin, tissues, the macrophages or other cells present in the blood stream or lymph, increases in bio-availability and/or sustained […]. A repeat of this procedure with the addition of ultrasound operating at 44 khz, and 0.2 watts/square cm indicated a more rapid delivery of the insulin as evidenced by the subject's glucose levels which dropped from 109 mg/dl to 78 mg/dl less than 30 minutes after the delivery began. As in the case of example 45, for heparin delivery, a low current iontophoretic system can be coupled with the micropores to facilitate a greater flux rate and provide the ability to modulate this flux rate by varying the current, allowing a delivery on demand type of system to be built. Previous work with insulin has typically shown that relatively high iontophoretic currents are required to overcome the strong barrier properties of the intact stratum corneum. […]

Bounds are passed on as bounds.

Turning to `CCCCC[C@H](O)/C=C/[C@H]1[C@H](O)CC(=O)[C@@H]1CCCCCCC(=O)O` [alprostadil, Alprostadil], the “engorgement of the penis, estimated share of a full erection” value with healthy male volunteers (12 to 36 micropores, roughly 100 microns deep, on 1 square cm, concentrated solution plus ultrasonic transducer) is reported as at least 70%. Further, the “malar flush response to systemic levels of the drug” value with healthy male volunteers (over a 30 to 60 minute delivery period) is recorded as “profound malar flush”.

`CN(C)c1ccc2nc3ccc(=[N+](C)C)cc-3sc2c1` [methylene blue, Methylene blue]: in series [1], the “lag time of pulse of indicator molecules on application of sonic energy” value is below 0.1 s and the “shutoff lag of pulse of indicator molecules on turning off sonic energy” value is below 0.1 s. Further, the “level of dye solution in receiver medium (no visual indication of dye flux)” value in series [1] (5 min) is < 0.0015 % (v/v).

As for `CN1CC[C@]23c4c5ccc(O)c4O[C@H]2[C@@H](O)C=C[C@H]3[C@H]1C5` [morphine], in series [2], the “basal level of morphine in venous blood” value lay within 3 to 6 ng/mL.

Consider heparin, for which the “clotting of red cells in collected ISF” value in series [3] (36 micropores in 1 square cm, iontophoresis 0.2 milliamperes per square cm for ten minutes) is given as “no clotting took place”. Also, in series [3] (36 micropores in 1 square cm, sodium heparin solution, iontophoresis 0.2 milliamperes per square cm for ten minutes), the “microscopic examination of the site” value is “vasodilation of the capillaries”. For the same compound, the “microscopic examination of the in vivo site” value in series [3] (skin porated to approximately 100 μm, passive diffusion and iontophoresis (about 1 mA/cm^2)) was “increased capillary dilation and permeability”.

For insulin, the “time to depression of glucose levels” value in series [4] (3500 IU/ml solution on 4 square cm porated volar forearm, passive) is “approximately 4 hours”. Also, in series [4] (3500 IU/ml solution on 4 square cm porated volar forearm, passive, fasted 14 hours, from 100 mg/dl at the start, over a ten minute cycle), the “finger stick blood glucose after depression” value was 67 mg/dL. Besides, the “time to glucose drop after delivery began” value in series [4] (with ultrasound at 44 khz and 0.2 watts/square cm) was “less than 30 minutes”. Moreover, the “glucose level after drop” value in series [4] (with ultrasound at 44 khz and 0.2 watts/square cm, from 109 mg/dl) worked out at 78 mg/dL.

These data come from US9579380B2, “Microporation of tissue for delivery of bioactive agents” (priority 1996, dated 2017).
